Experimental data published in patent publication EP1611148B1, “NOVEL NITRILE GLYCOSIDE USEFUL AS A BIO-ENHANCER OF DRUGS AND NUTRIENTS, PROCESS OF ITS ISOLATION FROM MORINGA OLEIFERA” (Council of Scientific and Industrial Research, priority 2003, dated 2004).

How the values were obtained:
B subtilis (MTCC121) = assay: Bioactivity enhancement of antibiotics (killing efficiency, broth assay) against B subtilis; conditions: alone or with Niaziridin @ 1.0 µg/ml
M smegmatis (MC^2 155) = assay: Bioactivity enhancement of antibiotics (killing efficiency, broth assay) against M smegmatis; conditions: alone or with Niaziridin @ 1.0 µg/ml
C.albicans = assay: Enhancement of anticandidial activity of clotrimazole (broth assay)
[1] = anaesthetized rat, 1-10 mg/ kg I.V; cited from earlier work
[2] = tested on: M.tuberculosis H37Rv (ATCC 27294); assay: Bioactivity enhancement of anti-tubercular drugs, radiometric BACTEC 460 TB system; format: cell-based, Mycobacterium tuberculosis
Excerpt: Since, the bioenhancer compound was able to enhance the activity of antibiotics against Gram (+) bacteria such as M.smegmatis, our subsequent interest was to test the compound against M.tuberculosis H37Rv (ATCC 27294) (Philipp et al 1996; Proc.Natl.Acad.Sci USA 93, 3132-3137), the causal organism of tuberculosis. To accomplish this we employed a radiometric assay using the BACTEC 460 TB system manufactured by M/S Becton Dickinson Ltd., USA. The antimycobacterial property of the drugs in combination with the bioenhancer was studied as per the recommended drug sensitivity protocol prescribed by the manufacturer (BACTEC 460 TB system: Product & Procedure Manual, MA 0029, 1996; Becton Dickinson Co., USA). Briefly the procedure is described below. • (a) The 12 B vials as provided by the manufacture were pre-tested prior to inoculation to establish the recommended CO2 atmosphere. […] After mixing thoroughly, 0.1 ml of this dilution was added into the control 12 B vial (without a drug). • (d) Biosafety precautions were taken as recommended by the manufacturer. • (e) Vials were tested daily in BACTEC 460 TB system for 12 days at approximately the same time each day as recommended by the manufacturer. The mycobacterial growth is expressed as Growth Index (GI) and compared to that of the control vials (antibiotic alone).

[3] = Bioavailability test using gastro-intestinal epithelium (U-tube); format: in vitro ADME, goat; conditions: Vitamine B 12, in combination; Figure 3
Excerpt: Specially designed U-tubes of glass consisting of two components (opposite-L type) were used in which one open end of an L-shaped was tapered to fit within the end of the other L-tube (as described in US Patent # 6,410,059). The membrane of goat gut (initial part) was stretched and fixed to act as the barrier between the two ends such that by joining the two L-tubes, a U-tube was made. Sterile distilled water was then filled in both the sides to equal height/level. The antibiotic/compound was added to the donor tube (tapered) and through spectro-photometer, the transfer of molecule was observed using UV and visible absorption maxima of the respective molecules by taking the OD at defined wavelengths (264 nm for isoniazid).

[4] = tested on: Escherichia coli, CA 8000; assay: Enhancement of adsorption of λ phage on bacteria; conditions: cells pretreated with niaziridin @ 1 ug/ml
Experimental: Overnight grown bacterial culture (Escherichia coli, CA 8000) was divided into 5 ml of aliquot each in screw cap tubes. One of the tube with the bacterial culture was treated with niaziridin to a final concentration of 1µg/ml. Both the control and the treated tubes were incubated at 37°C for 4 hours. The cultures were then infected with λ phage (MOI=10) for 10minutes at 37°C (for adsorption) followed by centrifugation at 10000 RPM for 10 minutes at 4°C.
The supernatant and the pellets for both treated and untreated cultures were then compared for the phage titer by plating on top agar containing sensitive bacteria at different dilutions.

E.coli DH5α = assay: Enhancement of bacterial transformation with pUC18 plasmid DNA, strain DH5α
Experimental: Overnight grown bacterial E.coli DH5α (Sambrook at al^28) cells were diluted to 10 folds in growth medium and treated with niaziridin @1-10µg/ml for 4 hours at 37°C in a shaker (200 RPM).
These log phase cells were then treated with calcium chloride to induce competence and then transformed with pUC18 plasmid DNA and plated on Luria agar plates containing 100µg/ml ampicillin.
The colonies thus appeared, on the plates for both treated and untreated cultures were scored.

E.coli CA8000 = assay: Enhancement of bacterial transformation with pUC18 plasmid DNA, strain CA8000
E.coli (CA8000) = conditions: 6 ug/mL
Staphylococcus aurues = conditions: in combination with 5-Methoxy hydnocarpin (5-MHC); cited from earlier work
[5] = cells pre treated with niaziridin at 1 ug/ml
[6] = cells pre treated with niaziridin at 10 ug/ml

CCn1cc(C(=O)O)c(=O)c2ccc(C)nc21 [Nal, nalidixic acid]
Titre (B subtilis (MTCC121); Nal (2.0)): 3.1x10^7 | Titre (M smegmatis (MC^2 155); Nal (1.0)): 3.7x10^8

Clc1ccccc1C(c1ccccc1)(c1ccccc1)n1ccnc1 [Clotrimazole, clotrimazole]
Cfu / ml at 36 h (C.albicans; clotrimazole 0.5ug/ml, alone or with Niaziridin 10ug/ml, 36 h): 23.6 x 10^5 Cfu / ml

CCOC(=S)NCc1ccc(OC2OC(C)C(O)C(O)C2O)cc1 (centres unmarked) [niazimicin]
hypotensive and bradycardiac effect [1]: produced hypotensive and bradycardiac effect

niaziridin
enhancement of antimycobacterial activity of isoniazid (Growth Index) ([2]; in combination with isoniazid, Figure 2): able to enhance the antimycobacterial activity | enhancement of antimycobacterial activity of rifampicin (Growth Index) ([2]; in combination with rifampicin, Figure 1): able to enhance the antimycobacterial activity | uptake of nutrients through the intestinal gut membrane [3]: able to facilitate the uptake of nutrients like Vitamine B 12 through the intestinal gut membrane | Pellet (10^7pfu) ([4]; MOI 5): 7.7 10^7pfu | Supernatant (10^7pfu) ([4]; MOI 5): 7.7 10^7pfu | Pellet (10^7pfu) ([4]; MOI 10): 18.0 10^7pfu | Supernatant (10^7pfu) ([4]; MOI 10): 8.0 10^7pfu | enhancement of the antifungal activity of clotrimazole (C.albicans; in combination, observed only at 10ug/ml of the compound): 5-6 folds | Fold enhancement in DNA transformation (E.coli DH5α; [5]): 1.9 Fold | Titre (10^4) (E.coli DH5α; [5]): 16.0 10^4 | Fold enhancement in DNA transformation (E.coli DH5α; [6]): 2.3 Fold | Titre (10^4) (E.coli DH5α; [6]): 20.0 10^4 | Fold enhancement in DNA transformation (E.coli CA8000; [5]): 1.9 Fold | Titre (10^3) (E.coli CA8000; [5]): 8.30 10^3 | Fold enhancement in DNA transformation (E.coli CA8000; [6]): 5.5 Fold | Titre (10^3) (E.coli CA8000; [6]): 24.0 10^3

niazinin B
hypotensive and bradycardiac effect [1]: produced hypotensive and bradycardiac effect

niaziminin B
hypotensive and bradycardiac effect [1]: produced hypotensive and bradycardiac effect

niaziminin A
hypotensive and bradycardiac effect [1]: produced hypotensive and bradycardiac effect

CO[C@H]1/C=C/O[C@@]2(C)Oc3c(C)c(O)c4c(O)c(c(/C=N/N5CCN(C)CC5)c(O)c4c3C2=O)NC(=O)/C(C)=C\C=C\[C@H](C)[C@H](O)[C@@H](C)[C@@H](O)[C@@H](C)[C@H](OC(C)=O)[C@@H]1C [Rif, rifampicin]
Titre (B subtilis (MTCC121); Rif (0.05)): 2.1x10^8 | Titre (M smegmatis (MC^2 155); Rif (0.05)): 1.3x10^7

CN(C)[C@@H]1C(=O)C(C(N)=O)=C(O)[C@@]2(O)C(=O)C3=C(O)c4c(O)cccc4[C@@](C)(O)[C@H]3C[C@@H]12 [Tet, tetracycline]
Titre (B subtilis (MTCC121); Tet (1.0)): 7.0x10^7 | Titre (M smegmatis (MC^2 155); Tet (2.0)): 1.2x10^8

COC(=S)NCc1ccc(O[C@@H]2O[C@@H](C)[C@H](O)[C@@H](O)[C@H]2O)cc1 [niazinin A]
hypotensive and bradycardiac effect [1]: produced hypotensive and bradycardiac effect

CC1(C)S[C@@H]2[C@H](NC(=O)[C@H](N)c3ccccc3)C(=O)N2[C@H]1C(=O)O [Amp, ampicillin]
% Survival (E.coli (CA8000)): 3.69% | Titre (B subtilis (MTCC121); Amp (0.01)): 2.9x10^8 | Titre (M smegmatis (MC^2 155); Amp (0.1)): 1.0x10^8

COc1ccc2cc3[n+](cc2c1OC)CCc1cc2c(cc1-3)OCO2 [berberine]
increase of antimicrobial activity of berberine (Staphylococcus aurues): 200 folds
